Experimental data as given in PubChem BioAssay AID248 (DTP/NCI, 2004).
Several values for one entry are separate records, joined by “and”; a condition that tells them apart may be missing. Equal entries are not always repeated. Inconclusive results and toxic doses are left out. Rule as the data show it: active = T/C of 150% or more; inactive = T/C below 125%. Square brackets hold non-standard residues; d marks the D form. Peptide text beside a SMILES is read from it. * marks the point of attachment. ξ: configuration not given here. Cbz = O=C(OCc1ccccc1)*; ξI = CCC(C)C(N)C(=O)O

Test system: L1210 leukemia ip in BDF1 mice, survival T/C
Assay: NCI In Vivo Anticancer Drug Screen. Data for tumor model L1210 Leukemia (intraperitoneal) in B6D2F1 (BDF1) mice
Conditions: endpoint: mean survival time, higher = longer survival
In short: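 Mice bearing the transplanted tumor received compound or vehicle. Survival of the treated group was divided by that of the vehicle-treated control group to give the ratio.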

[1] = dose: 100.0 mg/kg/injection, schedule: Q01DX001 (ip), vehicle: carboxymethylcellulose (CMC)
[2] = dose: 100.0 mg/kg/injection, schedule: Q01DX001 (ip), vehicle: saline with Tween-80
[3] = dose: 200.0 mg/kg/injection, schedule: Q01DX001 (ip), vehicle: saline with Tween-80
[4] = dose: 100.0 mg/kg/injection, schedule: Q01DX009 (ip), vehicle: Klucel (hydroxypropylcellulose) (HPC)
[5] = dose: 200.0 mg/kg/injection, schedule: Q01DX009 (ip), vehicle: Klucel (hydroxypropylcellulose) (HPC)
[6] = dose: 100.0 mg/kg/injection, schedule: Q01DX001 (ip), vehicle: saline
[7] = dose: 200.0 mg/kg/injection, schedule: Q01DX001 (ip), vehicle: saline
[8] = dose: 400.0 mg/kg/injection, schedule: Q01DX001 (ip), vehicle: saline
[9] = dose: 100.0 mg/kg/injection, schedule: Q01DX009 (ip), vehicle: saline with Tween-80
[10] = dose: 100.0 mg/kg/injection, schedule: Q04DX003 (ip), vehicle: saline with Tween-80
[11] = dose: 200.0 mg/kg/injection, schedule: Q01DX009 (ip), vehicle: saline with Tween-80
[12] = dose: 200.0 mg/kg/injection, schedule: Q04DX003 (ip), vehicle: saline with Tween-80
[13] = dose: 400.0 mg/kg/injection, schedule: Q01DX009 (ip), vehicle: saline with Tween-80
[14] = dose: 400.0 mg/kg/injection, schedule: Q04DX003 (ip), vehicle: saline with Tween-80
[15] = dose: 100.0 mg/kg/injection, schedule: Q04DX003 (ip), vehicle: Klucel (hydroxypropylcellulose) (HPC)
[16] = dose: 200.0 mg/kg/injection, schedule: Q04DX003 (ip), vehicle: Klucel (hydroxypropylcellulose) (HPC)
[17] = dose: 400.0 mg/kg/injection, schedule: Q04DX003 (ip), vehicle: Klucel (hydroxypropylcellulose) (HPC)
[18] = dose: 100.0 mg/kg/injection, schedule: Q04DX002 (ip), vehicle: Klucel (hydroxypropylcellulose) (HPC)
[19] = dose: 200.0 mg/kg/injection, schedule: Q04DX002 (ip), vehicle: Klucel (hydroxypropylcellulose) (HPC)
[20] = dose: 400.0 mg/kg/injection, schedule: Q04DX002 (ip), vehicle: Klucel (hydroxypropylcellulose) (HPC)
[21] = dose: 100.0 mg/kg/injection, schedule: Q01DX001 (ip), vehicle: Klucel (hydroxypropylcellulose) (HPC)
[22] = dose: 200.0 mg/kg/injection, schedule: Q01DX001 (ip), vehicle: Klucel (hydroxypropylcellulose) (HPC)
[23] = dose: 200.0 mg/kg/injection, schedule: Q01DX001 (ip), vehicle: carboxymethylcellulose (CMC)
[24] = dose: 400.0 mg/kg/injection, schedule: Q01DX001 (ip), vehicle: carboxymethylcellulose (CMC)
[25] = dose: 50.0 mg/kg/injection, schedule: Q01DX009 (ip), vehicle: Klucel (hydroxypropylcellulose) (HPC)

Measured: T/C

CC[Si](C)(C)c1ccc(CCN2CC2)s1
inactive: [1] 113 % of control

CCCCCCCNCCC#N
inactive: [2] 95 % of control | [3] 89 % of control

COC(O)C(O)C(O)C(O)CO (stereo not given) (tested in a mixture with another compound)
inactive: [2] 90 % of control | [3] 97 % of control | dose: 400.0 mg/kg/injection, schedule: Q01DX001 (ip), vehicle: saline with Tween-80 93 % of control

CCOc1ccc(NC(=O)C(Br)C(Br)C(=O)O)cc1 (stereo not given)
inactive: [4] 94 % of control | [5] 98 % of control | dose: 400.0 mg/kg/injection, schedule: Q01DX009 (ip), vehicle: Klucel (hydroxypropylcellulose) (HPC) 100 % of control

O=c1oc2cccc(O)c2c(O)c1Cc1ccccc1
inactive: dose: 100.0 mg/kg/injection, schedule: Q04DX003 (ip), vehicle: saline 97 % of control | dose: 200.0 mg/kg/injection, schedule: Q04DX003 (ip), vehicle: saline 94 % of control | dose: 400.0 mg/kg/injection, schedule: Q04DX003 (ip), vehicle: saline 94 % of control

NCC1CCNCC1
inactive: dose: 25.0 mg/kg/injection, schedule: Q04DX002 (ip), vehicle: saline 103 % of control | dose: 50.0 mg/kg/injection, schedule: Q04DX002 (ip), vehicle: saline 97 % of control and 100 % of control | dose: 100.0 mg/kg/injection, schedule: Q04DX002 (ip), vehicle: saline 103 % of control and 106 % of control | dose: 200.0 mg/kg/injection, schedule: Q04DX002 (ip), vehicle: saline 102 % of control and 90 % of control | dose: 400.0 mg/kg/injection, schedule: Q04DX002 (ip), vehicle: saline 97 % of control

CCOC(=O)C1(C(C)=O)CC=CC1
inactive: [6] 100 % of control | [7] 104 % of control | [8] 100 % of control

COc1cc(C=Nc2ccc(Cl)cc2)ccc1O
inactive: [9] 97 % of control | [10] 120 % of control | [11] 94 % of control | [12] 96 % of control | [13] 101 % of control | [14] 103 % of control

CCOC(=O)c1[nH]c(-c2ccccc2)c(C(=O)OCC)c1-c1ccccc1
inactive: [15] 100 % of control | [16] 103 % of control | [17] 115 % of control

CCN(CCO)C(=O)C1C(c2ccccc2)C1c1ccccc1 (stereo not given)
inactive: [18] 97 % of control | [19] 100 % of control | [20] 90 % of control

C=CSCCCC(C)=O
inactive: [21] 97 % of control | [22] 103 % of control | dose: 400.0 mg/kg/injection, schedule: Q01DX001 (ip), vehicle: Klucel (hydroxypropylcellulose) (HPC) 101 % of control

CCOC(=O)C(C)(N)CCOCc1ccccc1 (stereo not given)
inactive: dose: 50.0 mg/kg/injection, schedule: Q01DX001 (ip), vehicle: carboxymethylcellulose (CMC) 100 % of control | [1] 102 % of control | [23] 100 % of control | [24] 104 % of control

CN(C)c1ccc(NC(=O)NCCCl)cc1
inactive: [15] 106 % of control | [16] 103 % of control

N/N=C(\N)c1nn(C2OC(CO)C(O)C2O)c2ncnc(N)c12 (stereo not given)
inactive: dose: 60.0 mg/kg/injection, schedule: Q01DX005 (ip), vehicle: saline 116 % of control | dose: 100.0 mg/kg/injection, schedule: Q01DX005 (ip), vehicle: saline 124 % of control | dose: 200.0 mg/kg/injection, schedule: Q01DX005 (ip), vehicle: saline 113 % of control

O=C(CCCC(=O)N/N=C/c1ccc(OCc2ccccc2)cc1)N/N=C\c1ccc(OCc2ccccc2)cc1
inactive: dose: 50.0 mg/kg/injection, schedule: Q01DX001 (ip), vehicle: other 102 % of control | dose: 100.0 mg/kg/injection, schedule: Q01DX001 (ip), vehicle: other 93 % of control | dose: 200.0 mg/kg/injection, schedule: Q01DX001 (ip), vehicle: other 93 % of control | dose: 400.0 mg/kg/injection, schedule: Q01DX001 (ip), vehicle: other 91 % of control

CC(C)=CC(=O)OCC[N+](C)(C)C
inactive: dose: 3.12 mg/kg/injection, schedule: Q01DX009 (ip), vehicle: saline 104 % of control | dose: 6.25 mg/kg/injection, schedule: Q01DX009 (ip), vehicle: saline 98 % of control | dose: 12.5 mg/kg/injection, schedule: Q01DX009 (ip), vehicle: saline 102 % of control and 109 % of control

c1ccc(-c2nnc3ccccn23)cc1
inactive: [21] 102 % of control | [22] 106 % of control

O=NN(CC(F)(F)F)C(=O)NC1CCCCC1 (tested in a mixture with another compound)
inactive: dose: 8.0 mg/kg/injection, schedule: Q01DX001 (ip), vehicle: other 100 % of control | dose: 16.0 mg/kg/injection, schedule: Q01DX001 (ip), vehicle: other 95 % of control | dose: 31.0 mg/kg/injection, schedule: Q01DX001 (ip), vehicle: other 94 % of control | dose: 62.0 mg/kg/injection, schedule: Q01DX001 (ip), vehicle: other 97 % of control | dose: 125.0 mg/kg/injection, schedule: Q01DX001 (ip), vehicle: other 101 % of control | dose: 250.0 mg/kg/injection, schedule: Q01DX001 (ip), vehicle: other 94 % of control | dose: 375.0 mg/kg/injection, schedule: Q01DX001 (ip), vehicle: other 101 % of control

O=C(NC(Cc1ccccc1)C(=O)N1CCCCC1)c1ccccc1 (stereo not given)
inactive: [1] 101 % of control | [23] 92 % of control | [24] 90 % of control

O=C(O)COc1cccc(Cl)c1F
inactive: [18] 100 % of control | [19] 107 % of control | [20] 118 % of control

CCC(C)C(NC(=O)CNC(=O)OCc1ccccc1)C(=O)OC (stereo not drawn) (Cbz-Gly-[ξI]-OMe)
inactive: [10] 101 % of control | [12] 98 % of control | [14] 96 % of control

O=C(CCl)Nc1ccc(S(=O)(=O)c2ccc([N+](=O)[O-])cc2)cc1
inactive: dose: 30.0 mg/kg/injection, schedule: Q01DX001 (ip), vehicle: saline 94 % of control | dose: 75.0 mg/kg/injection, schedule: Q01DX009 (ip), vehicle: saline 95 % of control | dose: 75.0 mg/kg/injection, schedule: Q04DX003 (ip), vehicle: saline 92 % of control | [6] 91 % of control | dose: 150.0 mg/kg/injection, schedule: Q01DX009 (ip), vehicle: saline 96 % of control | dose: 150.0 mg/kg/injection, schedule: Q04DX003 (ip), vehicle: saline 91 % of control | dose: 300.0 mg/kg/injection, schedule: Q01DX001 (ip), vehicle: saline 94 % of control | dose: 300.0 mg/kg/injection, schedule: Q01DX009 (ip), vehicle: saline 101 % of control | dose: 300.0 mg/kg/injection, schedule: Q04DX003 (ip), vehicle: saline 94 % of control

OC1CCC(O)C2CCCCC12 (stereo not given)
inactive: [6] 101 % of control | [15] 112 % of control | [7] 95 % of control | [16] 91 % of control | [8] 95 % of control | [17] 104 % of control

COC(=O)c1ccccc1C1(c2ccccc2C(=O)OC)OC(=O)c2ccccc21
inactive: [9] 97 % of control | [10] 98 % of control | [11] 101 % of control | [12] 93 % of control | [13] 97 % of control | [14] 96 % of control

O=C1c2cscc2C(=O)c2c(Cl)sc(Cl)c21
inactive: dose: 100.0 mg/kg/injection, schedule: Q04DX003 (ip), vehicle: acetone 102 % of control

CCOC(=O)C1CCC(=O)N1C(=O)c1cc([N+](=O)[O-])cc([N+](=O)[O-])c1 (stereo not given)
inactive: [15] 97 % of control | [16] 92 % of control | [17] 94 % of control

C/C(=N/NC(N)=O)C1CC2CCC1CC2 (stereo not given)
inactive: [25] 102 % of control | [4] 93 % of control | [5] 89 % of control

CC(=O)c1cccc(NC(=O)c2ccco2)c1
inactive: [25] 96 % of control | [4] 93 % of control | [5] 93 % of control
